In US11446287B2, “Compounds and methods for EP300 or CBP modulation and indications therefor” (Opna Immuno-Oncology SA, priority 2019, dated 2022):

Molecular target: T1, Recombinant human BRD4 containing dual bromodomains (BRD4-BD12 (1-477)) (Homo sapiens, UniProt O60885)
T1 construct: Recombinant human BRD4 containing dual bromodomains (BRD4-BD12 (1-477)); made in house; host or cells: E. coli BL21-CodonPlus (DE3), modified pET vector
Test: BRD4 Alphascreen binding assay
How it was run: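 His-tagged human BRD4 tandem bromodomains (1-477, E. coli) incubated 1 h at room temperature with biotinylated tetra-acetylated H4 (1-21) peptide and compound in HEPES pH 7.5 buffer with 2 mM DTT. AlphaScreen signal read 30 min after adding beads (7.5 μg/ml); IC50 from four-parameter fit after normalization to controls.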

**Q.** How did the IC50 turn out when `Cc1noc(C)c1-c1cnc2c(C(=O)C3CC3)c(O)n(-c3ccnc(C(=O)O)c3)c2c1` [P-0084, 4-(3-(cyclopropanecarbonyl)-6-(3,5-dimethylisoxazol-4-yl)-2-hydroxy-1H-pyrrolo[3,2-b]pyridin-1-yl)picolinic acid] was run?
**A.** 0.0001 to 1 µM

**Q.** How did the IC50 turn out when `Cc1noc(C)c1-c1cnc2c(c1)c(-c1cccc(C(=O)O)c1)cn2C(=O)c1ccccc1` [P-0085, 3-(1-benzoyl-5-(3,5-dimethylisoxazol-4-yl)-1H-pyrrolo[2,3-b]pyridin-3-yl)benzoic acid] was run?
**A.** 8 to 1000 µM

**Q.** For `Cc1noc(C)c1-c1cnc2c(CC3CCC3)cn(-c3c(C(=O)O)ccc(Br)c3F)c2c1` [P-0086, 4-bromo-2-(3-(cyclobutylmethyl)-6-(3,5-dimethylisoxazol-4-yl)-1H-pyrrolo[3,2-b]pyridin-1-yl)-3-fluorobenzoic acid], which IC50 is on record?
**A.** 1 to 8 µM

**Q.** `COc1c(-n2cc(CC3CCC3)c3ncc(-c4c(C)noc4C)cc32)ccc(C(=O)O)c1F` [P-0087, 4-(3-(cyclobutylmethyl)-6-(3,5-dimethylisoxazol-4-yl)-1H-pyrrolo[3,2-b]pyridin-1-yl)-2-fluoro-3-methoxybenzoic acid] was tested. Which IC50 did it give?
**A.** 1 to 8 µM

**Q.** How did the IC50 turn out when `Cc1noc(C)c1-c1cnc2c(C(=O)c3cccc(Cl)c3)cn(-c3ccnc(C(=O)O)c3)c2c1` [P-0088, 4-(3-(3-chlorobenzoyl)-6-(3,5-dimethylisoxazol-4-yl)-1H-pyrrolo[3,2-b]pyridin-1-yl)picolinic acid] was run?
**A.** 1 to 8 µM

**Q.** `Cc1noc(C)c1-c1cnc2c(C(=O)c3ccccc3Cl)cn(-c3ccnc(C(=O)O)c3)c2c1` [P-0089, 4-(3-(2-chlorobenzoyl)-6-(3,5-dimethylisoxazol-4-yl)-1H-pyrrolo[3,2-b]pyridin-1-yl)picolinic acid] was tested. Which IC50 did it give?
**A.** 1 to 8 µM

**Q.** With `Cc1noc(C)c1-c1cnc2c(Cc3cccc(Cl)c3)cn(-c3ccnc(C(=O)O)c3)c2c1` [P-0090, 4-(3-(3-chlorobenzyl)-6-(3,5-dimethylisoxazol-4-yl)-1H-pyrrolo[3,2-b]pyridin-1-yl)picolinic acid] as the compound, how does the IC50 read?
**A.** 0.0001 to 1 µM

**Q.** With `Cc1noc(C)c1-c1cnc2c(Cc3ccccc3Cl)cn(-c3ccnc(C(=O)O)c3)c2c1` [P-0091, 4-(3-(2-chlorobenzyl)-6-(3,5-dimethylisoxazol-4-yl)-1H-pyrrolo[3,2-b]pyridin-1-yl)picolinic acid] as the compound, how does the IC50 read?
**A.** 1 to 8 µM

**Q.** Which IC50 does the source give for `Cc1noc(C)c1-c1cnc2c(c1)c(-c1cccc(C(=O)NS(C)(=O)=O)c1)cn2Cc1ccccc1` [P-0092, 3-(1-benzyl-5-(3,5-dimethylisoxazol-4-yl)-1H-pyrrolo[2,3-b]pyridin-3-yl)-N-(methylsulfonyl)benzamide] here?
**A.** 1 to 8 µM

**Q.** Which IC50 does the source give for `Cc1noc(C)c1-c1cnc2c(c1)c(C1=CCC(C(=O)O)CC1)cn2Cc1ccccc1` (stereo not shown) [P-0093, 4-(1-benzyl-5-(3,5-dimethylisoxazol-4-yl)-1H-pyrrolo[2,3-b]pyridin-3-yl)cyclohex-3-ene-1-carboxylic acid] here?
**A.** 1 to 8 µM

**Q.** With `Cc1noc(C)c1-c1cnc2c(c1)c(-c1c(F)cc(C(=O)O)cc1F)cn2C(C)c1ccccn1` (stereo not shown) [P-0094, 4-(5-(3,5-dimethylisoxazol-4-yl)-1-(1-(pyridin-2-yl)ethyl)-1H-pyrrolo[2,3-b]pyridin-3-yl)-3,5-difluorobenzoic acid] as the compound, how does the IC50 read?
**A.** 8 to 1000 µM

**Q.** `Cc1noc(C)c1-c1cnc2c(c1)c(-c1c(Cl)cc(C(=O)O)cc1Cl)cn2C(C)c1ccccn1` (stereo not shown) [P-0095, 3,5-dichloro-4-(5-(3,5-dimethylisoxazol-4-yl)-1-(1-(pyridin-2-yl)ethyl)-1H-pyrrolo[2,3-b]pyridin-3-yl)benzoic acid] was tested. Which IC50 did it give?
**A.** 1 to 8 µM

**Q.** How did the IC50 turn out when `Cc1noc(C)c1-c1cnc2c(c1)c(-c1c(F)ccc(NS(C)(=O)=O)c1F)cn2C(C)c1ccccn1` (stereo not shown) [P-0096, N-(3-(5-(3,5-dimethylisoxazol-4-yl)-1-(1-(pyridin-2-yl)ethyl)-1H-pyrrolo[2,3-b]pyridin-3-yl)-2,4-difluorophenyl)methanesulfonamide] was run?
**A.** 1 to 8 µM
